PubChem BioAssay AID1259407 (Chemical Carcinogenesis Research Information System (CCRIS), 2018)
Active and inactive are the calls of the source. The rule behind the calls is not given here.

Test system: CCRIS mutagenicity, Ames/micronucleus/aberration tests
Experiment: CCRIS mutagenicity studies
[1] = Test System: AMES SALMONELLA TYPHIMURIUM, Strain/Indicator: TA98, Metabolic Activation: HAMSTER, LIVER, S-9, AROCLOR 1254 (10%), Method: PREINCUBATION
[2] = Test System: AMES SALMONELLA TYPHIMURIUM, Strain/Indicator: TA98, Metabolic Activation: NONE, Method: PREINCUBATION
[3] = Test System: AMES SALMONELLA TYPHIMURIUM, Strain/Indicator: TA98, Metabolic Activation: NONE, Method: STANDARD PLATE
[4] = Test System: AMES SALMONELLA TYPHIMURIUM, Strain/Indicator: TA98, Metabolic Activation: RAT, LIVER, S-9, AROCLOR 1254 (10%), Method: PREINCUBATION
[5] = Test System: AMES SALMONELLA TYPHIMURIUM, Strain/Indicator: TA100, Metabolic Activation: HAMSTER, LIVER, S-9, AROCLOR 1254 (10%), Method: PREINCUBATION
[6] = Test System: AMES SALMONELLA TYPHIMURIUM, Strain/Indicator: TA100, Metabolic Activation: NONE, Method: PREINCUBATION
[7] = Test System: AMES SALMONELLA TYPHIMURIUM, Strain/Indicator: TA100, Metabolic Activation: NONE, Method: STANDARD PLATE
[8] = Test System: AMES SALMONELLA TYPHIMURIUM, Strain/Indicator: TA100, Metabolic Activation: RAT, LIVER, S-9, AROCLOR 1254 (10%), Method: PREINCUBATION
[9] = Test System: AMES SALMONELLA TYPHIMURIUM, Strain/Indicator: TA1535, Metabolic Activation: HAMSTER, LIVER, S-9, AROCLOR 1254 (10%), Method: PREINCUBATION
[10] = Test System: AMES SALMONELLA TYPHIMURIUM, Strain/Indicator: TA1535, Metabolic Activation: NONE, Method: PREINCUBATION
[11] = Test System: AMES SALMONELLA TYPHIMURIUM, Strain/Indicator: TA1535, Metabolic Activation: RAT, LIVER, S-9, AROCLOR 1254 (10%), Method: PREINCUBATION
[12] = Test System: AMES SALMONELLA TYPHIMURIUM, Strain/Indicator: TA1537, Metabolic Activation: HAMSTER, LIVER, S-9, AROCLOR 1254 (10%), Method: PREINCUBATION
[13] = Test System: AMES SALMONELLA TYPHIMURIUM, Strain/Indicator: TA1537, Metabolic Activation: NONE, Method: PREINCUBATION
[14] = Test System: AMES SALMONELLA TYPHIMURIUM, Strain/Indicator: TA1537, Metabolic Activation: RAT, LIVER, S-9, AROCLOR 1254 (10%), Method: PREINCUBATION
[15] = Test System: AMES SALMONELLA TYPHIMURIUM, Strain/Indicator: TA97, Metabolic Activation: NONE, Method: PREINCUBATION
[16] = Test System: AMES SALMONELLA TYPHIMURIUM, Strain/Indicator: TA97, Metabolic Activation: RAT, LIVER, S-9, AROCLOR 1254, Method: PREINCUBATION

With `Nc1c(N=Nc2ccc(-c3ccc(NN=C4C=CC(=O)C=C4)cc3)cc2)c(S(=O)(=O)O)cc2c1C(=O)/C(=N/Nc1ccccc1)C(S(=O)(=O)O)=C2` the mutagenic call [1] was “inactive; negative”, the mutagenic call [2] was “inactive; negative” and the mutagenic call [3] was “inactive; negative”. The mutagenic call [4] was “inactive; negative”, the mutagenic call (Test System: AMES SALMONELLA TYPHIMURIUM, Strain/Indicator: TA98, Metabolic Activation: RAT, LIVER, S-9, PHENOBARBITAL, Method: STANDARD PLATE) was “inactive; negative” and the mutagenic call [5] was “inactive; negative”. The mutagenic call [6] was “inactive; negative”, the mutagenic call [7] was “inactive; negative” and the mutagenic call [8] was “inactive; negative”. The mutagenic call (Test System: AMES SALMONELLA TYPHIMURIUM, Strain/Indicator: TA100, Metabolic Activation: RAT, LIVER, S-9, PHENOBARBITAL, Method: STANDARD PLATE) was “inactive; negative”, the mutagenic call [9] was “active; positive” and the mutagenic call [10] was “inactive; negative”. The mutagenic call (Test System: AMES SALMONELLA TYPHIMURIUM, Strain/Indicator: TA1535, Metabolic Activation: RAT LIVER, S-9, AROCLOR 1254 (10%), Method: PREINCUBATION) was “inactive; negative”, the mutagenic call [11] was “active; positive” and the mutagenic call [12] was “inactive; negative”. For the same compound, the mutagenic call [13] was “inactive; negative” and the mutagenic call [14] was “inactive; negative”.

`CC(C)(C)OOC1(C)C=C(C(C)(C)C)C(=O)C(C(C)(C)C)=C1` was tested, and the mutagenic call [2] was “inactive; negative”, the mutagenic call (Test System: AMES SALMONELLA TYPHIMURIUM, Strain/Indicator: TA98, Metabolic Activation: RAT, LIVER, S-9, Method: PREINCUBATION) was “inactive; negative” and the mutagenic call [6] was “inactive; negative”. For the same compound, the mutagenic call (Test System: AMES SALMONELLA TYPHIMURIUM, Strain/Indicator: TA100, Metabolic Activation: RAT, LIVER, S-9, Method: PREINCUBATION) was “inactive; negative”.

With `CCCCCNCCCCC` the mutagenic call [1] was “inactive; negative”, the mutagenic call [2] was “inactive; negative” and the mutagenic call [4] was “inactive; negative”. The mutagenic call [5] was “inactive; negative”, the mutagenic call [6] was “inactive; negative” and the mutagenic call [8] was “inactive; negative”. For the same compound, the mutagenic call [9] was “inactive; negative”, the mutagenic call [10] was “inactive; negative” and the mutagenic call [11] was “inactive; negative”. The mutagenic call [12] was “inactive; negative”, the mutagenic call [13] was “inactive; negative” and the mutagenic call [14] was “inactive; negative”.

`O=[N+]([O-])c1cccc(OS(=O)(=O)c2cccc3cccnc23)c1` was tested, and the mutagenic call [3] was “inactive; negative”, the mutagenic call (Test System: AMES SALMONELLA TYPHIMURIUM, Strain/Indicator: TA98, Metabolic Activation: RAT, LIVER, S-9, AROCLOR 1254, Method: STANDARD PLATE) was “active; positive” and the mutagenic call [7] was “inactive; negative”. The mutagenic call (Test System: AMES SALMONELLA TYPHIMURIUM, Strain/Indicator: TA100, Metabolic Activation: RAT, LIVER, S-9, AROCLOR 1254, Method: STANDARD PLATE) was “active; positive”, the mutagenic call (Test System: AMES SALMONELLA TYPHIMURIUM, Strain/Indicator: TA1535, Metabolic Activation: NONE, Method: STANDARD PLATE) was “inactive; negative” and the mutagenic call (Test System: AMES SALMONELLA TYPHIMURIUM, Strain/Indicator: TA1535, Metabolic Activation: RAT, LIVER, S-9, AROCLOR 1254, Method: STANDARD PLATE) was “inactive; negative”. The mutagenic call (Test System: AMES SALMONELLA TYPHIMURIUM, Strain/Indicator: TA1537, Metabolic Activation: NONE, Method: STANDARD PLATE) was “inactive; negative” and the mutagenic call (Test System: AMES SALMONELLA TYPHIMURIUM, Strain/Indicator: TA1537, Metabolic Activation: RAT, LIVER, S-9, AROCLOR 1254, Method: STANDARD PLATE) was “inactive; negative”.

With `c1ccc(N2CCNCC2)cc1` the mutagenic call (Test System: AMES SALMONELLA TYPHIMURIUM, Strain/Indicator: TA97, Metabolic Activation: HAMSTER, LIVER, S-9, AROCLOR 1254, Method: PREINCUBATION) was “inactive; negative”, the mutagenic call [15] was “inactive; negative” and the mutagenic call [16] was “inactive; negative”. The mutagenic call (Test System: AMES SALMONELLA TYPHIMURIUM, Strain/Indicator: TA98, Metabolic Activation: HAMSTER, LIVER, S-9, AROCLOR 1254, Method: PREINCUBATION) was “inactive; negative”, the mutagenic call [2] was “inactive; negative” and the mutagenic call (Test System: AMES SALMONELLA TYPHIMURIUM, Strain/Indicator: TA98, Metabolic Activation: RAT, LIVER, S-9, AROCLOR 1254, Method: PREINCUBATION) was “inactive; negative”. The mutagenic call (Test System: AMES SALMONELLA TYPHIMURIUM, Strain/Indicator: TA100, Metabolic Activation: HAMSTER, LIVER, S-9, AROCLOR 1254, Method: PREINCUBATION) was “inactive; negative”, the mutagenic call [6] was “inactive; negative” and the mutagenic call (Test System: AMES SALMONELLA TYPHIMURIUM, Strain/Indicator: TA100, Metabolic Activation: RAT, LIVER, S-9, AROCLOR 1254, Method: PREINCUBATION) was “inactive; negative”.

For `Cc1cc2ccc3cc4ccccc4c4ccc(c1)c2c34`, the mutagenic call (Test System: AMES SALMONELLA TYPHIMURIUM, Strain/Indicator: TA100, Metabolic Activation: RAT, INTACT HEPATOCYTES, AROCLOR 1254, Method: PREINCUBATION) was “active; positive” and the mutagenic call (Test System: AMES SALMONELLA TYPHIMURIUM, Strain/Indicator: TA100, Metabolic Activation: RAT, NADPH-FORTIFIED HOMOGENIZED HEPATOCYTES, AROCLOR 1254, Method: PREINCUBATION) was “active; positive”.

In the case of `O=C(O)CCC(=O)O`, the mutagenic call [15] is reported as “inactive; negative”, the mutagenic call [16] is reported as “inactive; negative” and the mutagenic call (Test System: AMES SALMONELLA TYPHIMURIUM, Strain/Indicator: TA102, Metabolic Activation: NONE, Method: PREINCUBATION) is reported as “inactive; negative”. The mutagenic call (Test System: AMES SALMONELLA TYPHIMURIUM, Strain/Indicator: TA102, Metabolic Activation: RAT, LIVER, S-9, AROCLOR 1254, Method: PREINCUBATION) was “inactive; negative”.

For `CCCCN(CCC)N=O`, the mutagenic call (Test System: AMES SALMONELLA TYPHIMURIUM, Strain/Indicator: TA100, Metabolic Activation: RAT, LIVER, S-9, KC500 OR PHENOBARBITAL, Method: LIQUID SUSPENSION) was “active; positive” and the mutagenic call (Test System: MOUSE LYMPHOMA, Strain/Indicator: L5178Y (TK+/TK-), Metabolic Activation: RAT, LIVER, S-9, AROCLOR 1254, Method: SUSPENSION/PLATE) was “active; positive”.
